From patent publication US11566007B2, “Ras inhibitors” (Revolution Medicines, Inc., priority 2019, dated 2023)

Experiments:
[1] = test system: NCI-H358 cells (K-Ras G12C); assay: Potency assay: pERK in NCI-H358 cells; type: cell-based, human; conditions: Homo sapiens, NCI-H358; H358 KRAS G12C; read-out: pERK EC50
How it was run: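 4 h cpd, 37 °C; 10-pt 3-fold series, 10 mM DMSO top stock, duplicates. Readout pERK: AlphaLISA SureFire Ultra or In-Cell Western (IR-800CW secondary, DRAQ5 DNA stain). IC50, 4-PL fit vs log conc.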

KRAS WT = KRAS WT (Homo sapiens (Human), UniProt P01116+P62937); assay: Ras-Raf (BRAF RBD) disruption / FRET / MOA assay, KRAS WT; type: biochemical; conditions: read-out: IC50* KRAS WT FRET data
Chain of KRAS WT (P01116-2 other isoform, or with tags, fused parts or gaps): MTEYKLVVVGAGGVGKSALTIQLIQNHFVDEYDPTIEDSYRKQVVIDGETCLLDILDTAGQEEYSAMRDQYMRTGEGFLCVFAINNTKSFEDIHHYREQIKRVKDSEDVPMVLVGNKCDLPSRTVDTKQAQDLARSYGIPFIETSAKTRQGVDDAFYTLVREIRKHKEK
Chain of KRAS WT (P62937 whole entry): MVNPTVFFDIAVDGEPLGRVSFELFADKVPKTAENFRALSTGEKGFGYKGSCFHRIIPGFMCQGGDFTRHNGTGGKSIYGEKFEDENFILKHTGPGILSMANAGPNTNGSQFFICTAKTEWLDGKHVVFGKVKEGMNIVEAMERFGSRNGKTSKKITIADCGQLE
How it was run: (§1)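 Compound-driven ternary complex of nucleotide-loaded Ras with cyclophilin A, disrupting BRAF RBD binding. 10-point 3-fold dilution from 30 μM final, 3 h at 25° C, then anti-His Eu-W1024 (10 nM) and anti-GST allophycocyanin (50 nM) for 1.5 h. IC50 from TR-FRET ratio decrease versus DMSO.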

K-Ras G13C = K-Ras G13C (Homo sapiens (Human), UniProt P01116+P62937, G13C); assay: Ras-Raf (BRAF RBD) disruption / FRET / MOA assay, KRAS G13C; type: biochemical; conditions: KRAS G13C; Ras-Raf disruption/FRET/MOA assay; read-out: IC50* KRAS G13C FRET data
Chain of K-Ras G13C (P01116-2 other isoform, or with tags, fused parts or gaps G13C): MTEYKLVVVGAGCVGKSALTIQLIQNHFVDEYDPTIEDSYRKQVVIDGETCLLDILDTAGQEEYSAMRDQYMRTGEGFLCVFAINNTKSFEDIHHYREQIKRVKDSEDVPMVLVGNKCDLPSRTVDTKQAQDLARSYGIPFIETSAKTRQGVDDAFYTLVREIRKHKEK
Chain of K-Ras G13C (P62937 whole entry): as the sequence (P62937 whole entry) above
How it was run: as §1

NRAS G12C = NRAS G12C (Homo sapiens (Human), UniProt P01111+P62937, G12C); assay: Ras-Raf (BRAF RBD) disruption / FRET / MOA assay, NRAS G12C; type: biochemical; conditions: read-out: IC50* NRAS G12C FRET data
Chain of NRAS G12C (P01111 whole entry G12C): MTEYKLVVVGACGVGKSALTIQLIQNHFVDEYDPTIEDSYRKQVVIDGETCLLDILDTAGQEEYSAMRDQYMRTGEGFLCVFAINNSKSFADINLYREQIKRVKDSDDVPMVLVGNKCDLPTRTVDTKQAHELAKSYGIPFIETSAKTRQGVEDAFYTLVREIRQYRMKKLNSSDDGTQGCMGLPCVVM
Chain of NRAS G12C (P62937 whole entry): as the sequence (P62937 whole entry) above
How it was run: as §1

KRAS G12S = KRAS G12S (Homo sapiens (Human), UniProt P01116+P62937, G12S); assay: Ras-Raf (BRAF RBD) disruption / FRET / MOA assay, KRAS G12S; type: biochemical; conditions: Ras-Raf disruption/FRET/MOA assay; class symbols; read-out: KRAS G12S FRET data IC50
Chain of KRAS G12S (P01116-2 other isoform, or with tags, fused parts or gaps G12S): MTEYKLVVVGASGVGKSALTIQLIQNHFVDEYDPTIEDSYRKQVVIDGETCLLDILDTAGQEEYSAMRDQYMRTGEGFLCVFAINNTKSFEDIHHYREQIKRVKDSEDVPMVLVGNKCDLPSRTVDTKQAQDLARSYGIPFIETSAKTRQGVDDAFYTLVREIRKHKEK
Chain of KRAS G12S (P62937 whole entry): as the sequence (P62937 whole entry) above
How it was run: as §1

NCI-H358 (K-Ras G12C) = assay: CellTiter-Glo cell viability assay, NCI-H358; type: cell-based, human; conditions: Homo sapiens, NCI-H358, 120 h, NCI-H358, 5-day treatment; class symbols; read-out: Additional H358 Cell Viability assay data (K-Ras G12C, IC50)
How it was run: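 Viability measured by CellTiter-Glo luminescence on day 5 following direct addition of compound to plated cells. Values expressed as percent of mean DMSO signal; curves fitted with a four-parameter logistic model.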

KRAS G12V = KRAS G12V (Homo sapiens (Human), UniProt P01116+P62937, G12V); assay: Ras-Raf (BRAF RBD) disruption / FRET / MOA assay, KRAS G12V; type: biochemical; conditions: read-out: IC50* KRAS G12V FRET data
Chain of KRAS G12V (P01116-2 other isoform, or with tags, fused parts or gaps G12V): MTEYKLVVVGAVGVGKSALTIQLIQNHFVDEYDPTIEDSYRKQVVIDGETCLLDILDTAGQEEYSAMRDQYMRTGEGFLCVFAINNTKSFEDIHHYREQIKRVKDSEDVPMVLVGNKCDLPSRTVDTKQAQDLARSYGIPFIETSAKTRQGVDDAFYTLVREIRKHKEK
Chain of KRAS G12V (P62937 whole entry): as the sequence (P62937 whole entry) above
How it was run: as §1

K-Ras G12C = K-Ras G12C (Homo sapiens (Human), UniProt P01116+P62937, G12C); assay: Ras-Raf (BRAF RBD) disruption / FRET / MOA assay, KRAS G12C; type: biochemical; conditions: KRAS G12C; Ras-Raf disruption/FRET/MOA assay; read-out: IC50* KRAS G12C FRET data
Chain of K-Ras G12C (P01116-2 other isoform, or with tags, fused parts or gaps G12C): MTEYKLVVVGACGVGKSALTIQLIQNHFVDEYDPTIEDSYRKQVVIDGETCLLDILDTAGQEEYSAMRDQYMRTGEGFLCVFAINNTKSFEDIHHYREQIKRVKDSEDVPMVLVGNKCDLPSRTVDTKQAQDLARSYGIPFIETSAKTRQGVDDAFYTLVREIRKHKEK
Chain of K-Ras G12C (P62937 whole entry): as the sequence (P62937 whole entry) above
How it was run: as §1

KRAS G12D = KRAS G12D (Homo sapiens (Human), UniProt P01116+P62937, G12D); assay: Ras-Raf (BRAF RBD) disruption / FRET / MOA assay, KRAS G12D; type: biochemical; conditions: Ras-Raf disruption/FRET/MOA assay; class symbols; read-out: KRAS G12D FRET data IC50
Chain of KRAS G12D (P01116-2 other isoform, or with tags, fused parts or gaps G12D): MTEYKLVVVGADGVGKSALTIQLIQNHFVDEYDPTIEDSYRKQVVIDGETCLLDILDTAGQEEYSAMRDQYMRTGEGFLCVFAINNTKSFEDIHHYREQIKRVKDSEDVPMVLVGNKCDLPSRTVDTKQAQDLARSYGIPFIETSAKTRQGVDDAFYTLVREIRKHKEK
Chain of KRAS G12D (P62937 whole entry): as the sequence (P62937 whole entry) above
How it was run: as §1

KRAS G13D = KRAS G13D (Homo sapiens (Human), UniProt P01116+P62937, G13D); assay: Ras-Raf (BRAF RBD) disruption / FRET / MOA assay, KRAS G13D; type: biochemical; conditions: read-out: IC50* KRAS G13D FRET data
Chain of KRAS G13D (P01116-2 other isoform, or with tags, fused parts or gaps G13D): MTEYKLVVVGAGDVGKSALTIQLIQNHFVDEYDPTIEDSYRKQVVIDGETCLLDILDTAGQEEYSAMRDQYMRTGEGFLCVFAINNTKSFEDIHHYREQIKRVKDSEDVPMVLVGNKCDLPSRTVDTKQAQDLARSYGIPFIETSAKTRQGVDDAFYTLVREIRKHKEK
Chain of KRAS G13D (P62937 whole entry): as the sequence (P62937 whole entry) above
How it was run: as §1

Compound | EC50 [1] [nM] | IC50 (KRAS WT) [nM] | IC50 (K-Ras G13C) [nM] | IC50 (NRAS G12C) [nM] | IC50 (KRAS G12S) [nM] | IC50 (NCI-H358 (K-Ras G12C)) [nM] | IC50 (KRAS G12V) [nM] | IC50 (K-Ras G12C) [nM] | IC50 (KRAS G12D) [nM] | IC50 (KRAS G13D) [nM]
C=CC(=O)N1CC[C@H](C(=O)N(C)[C@H](C(=O)N[C@H]2Cc3cccc(c3)-c3ccc4c(c3)c(c(-c3cc5c(nc3[C@H](C)OC)CN(C)CC5)n4CC)CC(C)(C)COC(=O)[C@@H]3CCCN(N3)C2=O)C(C)C)C1 (atropisomer, axis not shown) [Example A446] | < 5000 | 1000 to 10000 | 1000 to 10000 | 100 to 1000 | 1000 to 10000 | < 10 | 1000 to 10000 | 100 to 1000 | > 10000 | 1000 to 10000
CCn1c(-c2cccnc2[C@H](C)OC)c2c3cc(ccc31)-c1cccc(c1)C[C@H](NC(=O)CCOC1CN(C(=O)C#CC(C)(C)N(C)C)C1)C(=O)N1CCC[C@H](N1)C(=O)OCC(C)(C)C2 (atropisomer, axis not shown) [Example A448] | < 5000 | > 10000 | > 10000 | 10 to 100 | > 10000 | 10 to 100 | > 10000 | 10 to 100 | > 10000 | > 10000
C=CC(=O)N1C[C@H](C(=O)N(C)[C@H](C(=O)N[C@H]2Cc3cccc(c3)-c3ccc4c(c3)c(c(-c3cccnc3[C@H](C)OC)n4CC)CC(C)(C)COC(=O)[C@@H]3CCCN(N3)C2=O)C(C)C)[C@@H](C)C1 (atropisomer, axis not shown) [Example A451] | < 5000 | 1000 to 10000 | 100 to 1000 | 100 to 1000 | 1000 to 10000 | 10 to 100 | 1000 to 10000 | 100 to 1000 | 1000 to 10000 | 1000 to 10000
C=CC(=O)N1CC2(C1)OCN([C@H](C(=O)N[C@H]1Cc3cccc(c3)-c3ccc4c(c3)c(c(-c3cccnc3[C@H](C)OC)n4CC)CC(C)(C)COC(=O)[C@@H]3CCCN(N3)C1=O)C(C)C)C2=O (atropisomer, axis not shown) [Example A452] | < 5000 | 100 to 1000 | 10 to 100 | 10 to 100 | 1000 to 10000 | < 10 | 1000 to 10000 | 10 to 100 | > 10000 | 1000 to 10000
CO[C@@H](C)c1ncccc1-c1c2c3cc(ccc3n1CC(F)(F)F)-c1nc(cs1)C[C@H](NC(=O)[C@H](C(C)C)N(C)C(=O)[C@H]1CCN(C(=O)C#CC(C)(C)N3CCC3)C1)C(=O)N1CCC[C@H](N1)C(=O)OCC(C)(C)C2 (atropisomer, axis not shown) [Example A454] | < 5000 | 100 to 1000 | 100 to 1000 | 10 to 100 | 1000 to 10000 | < 10 | 1000 to 10000 | 10 to 100 | 1000 to 10000 | 1000 to 10000
C=CC(=O)N1CC[C@H](C(=O)N(C)[C@H](C(=O)N[C@H]2Cc3csc(n3)-c3ccc4c(c3)c(c(-c3cccnc3[C@H](C)OC)n4CC(F)(F)F)CC(C)(C)COC(=O)[C@@H]3CCCN(N3)C2=O)C(C)C)C1 (atropisomer, axis not shown) [Example A455] | < 5000 | 100 to 1000 | 100 to 1000 | 100 to 1000 | 100 to 1000 | 10 to 100 | 1000 to 10000 | 100 to 1000 | 1000 to 10000 | 1000 to 10000
CCn1c(-c2cccnc2[C@H](C)OC)c2c3cc(ccc31)-c1cc(cc(C(F)F)c1)C[C@H](NC(=O)[C@H](C1CCCC1)N(C)C(=O)[C@H]1CCN(C(=O)C#CC(C)(C)N3CCC3)C1)C(=O)N1CCC[C@H](N1)C(=O)OCC(C)(C)C2 (atropisomer, axis not shown) [Example A456] | < 5000 | 1000 to 10000 | 1000 to 10000 | 10 to 100 | 1000 to 10000 | < 10 | 1000 to 10000 | 10 to 100 | 1000 to 10000 | 1000 to 10000
C=CC(=O)N1CCC2(CC1)OCN([C@H](C(=O)N[C@H]1Cc3cccc(c3)-c3ccc4c(c3)c(c(-c3cccnc3[C@H](C)OC)n4CC)CC(C)(C)COC(=O)[C@@H]3CCCN(N3)C1=O)C(C)C)C2=O (atropisomer, axis not shown) [Example A457] | < 5000 | 100 to 1000 | 100 to 1000 | 100 to 1000 | 1000 to 10000 | 10 to 100 | 1000 to 10000 | 100 to 1000 | > 10000 | 1000 to 10000
C=CC(=O)N1C[C@@H](C(=O)N(C)[C@H](C(=O)N[C@H]2Cc3cccc(c3)-c3ccc4c(c3)c(c(-c3cccnc3[C@H](C)OC)n4CC)CC(C)(C)COC(=O)[C@@H]3CCCN(N3)C2=O)C(C)C)C(C)(C)C1 (atropisomer, axis not shown) [Example A458] | < 5000 | 1000 to 10000 | 100 to 1000 | 10 to 100 | 1000 to 10000 | 10 to 100 | 1000 to 10000 | 10 to 100 | > 10000 | 1000 to 10000
C=CC(=O)N1CC(OC[C@H](C(=O)N[C@H]2Cc3nc(cs3)-c3ccc4c(c3)c(c(-c3cccnc3[C@H](C)OC)n4CC)CC(C)(C)COC(=O)[C@@H]3CCCN(N3)C2=O)C(C)C)C1 (atropisomer, axis not shown) [Example A462] | < 5000 | 1000 to 10000 | 1000 to 10000 | 100 to 1000 | 1000 to 10000 | < 10 | 1000 to 10000 | 100 to 1000 | > 10000 | > 10000
C=CC(=O)N1CC(C(=O)N(C)[C@H](C(=O)N[C@H]2Cc3cccc(c3)-c3ccc4c(c3)c(c(-c3cccnc3[C@H](C)OC)n4CC)CC(C)(C)COC(=O)[C@@H]3CCCN(N3)C2=O)C(C)C)C1 (atropisomer, axis not shown) [Example A467] | < 5000 | > 10000 | 1000 to 10000 | 100 to 1000 | > 10000 | 10 to 100 | > 10000 | 1000 to 10000 | > 10000 | > 10000
C=CC(=O)N1CC[C@H](C(=O)N(C)[C@H](C(=O)N[C@H]2Cc3cccc(c3)-c3ccc4c(c3)c(c(-c3cccnc3[C@H](C)OC)n4CC)CC(C)(C)COC(=O)[C@@H]3CCCN(N3)C2=O)C2COC2)C1 (atropisomer, axis not shown) [Example A469] | < 5000 | 1000 to 10000 | 1000 to 10000 | 100 to 1000 | 1000 to 10000 | 100 to 1000 | 1000 to 10000 | 100 to 1000 | > 10000 | 1000 to 10000
C=CC(=O)N1CC[C@]2(CCN([C@H](C(=O)N[C@H]3Cc4cccc(c4)-c4ccc5c(c4)c(c(-c4cccnc4[C@H](C)OC)n5CC)CC(C)(C)COC(=O)[C@@H]4CCCN(N4)C3=O)C(C)C)C2=O)C1 (atropisomer, axis not shown) [Example A470] | < 5000 | 1000 to 10000 | 100 to 1000 | 100 to 1000 | 100 to 1000 | 10 to 100 | 1000 to 10000 | 100 to 1000 | 1000 to 10000 | 1000 to 10000
C=CC(=O)N1CC[C@@]2(CCN([C@H](C(=O)N[C@H]3Cc4cccc(c4)-c4ccc5c(c4)c(c(-c4cccnc4[C@H](C)OC)n5CC)CC(C)(C)COC(=O)[C@@H]4CCCN(N4)C3=O)C(C)C)C2=O)C1 (atropisomer, axis not shown) [Example A471] | < 5000 | 1000 to 10000 | 100 to 1000 | 100 to 1000 | 1000 to 10000 | 10 to 100 | > 10000 | 100 to 1000 | > 10000 | > 10000
